Here are results for 13 compounds from patent publication US6610736B1, “16-Halogen-epothilone derivatives, method for producing them and their pharmaceutical use” (Schering AG, priority 1999, dated 2003).

Assay [1] relates to multi-drug-resistant NCl/ADR carcinoma cell line. Description: growth inhibition of multi-drug-resistant NCl/ADR cells, crystal-violet assay. Type of assay: cell-based, human. Conditions: for IC50: crystal-violet assay; for Selectivity = IC50 (NCl/ADR) : IC50 (MCF-7): ratio of IC50 NCl/ADR to MCF-7; for selectivity in multi-drug-resistant cell line NCl/ADR in comparison to epothilone B: statement on Table 2. The text has this:
(§1) a) IC50 values [nM] for the growth inhibition of human MCF-7 breast- and multi-drug-resistant NCl/ADR carcinoma cell lines of the epothilone derivatives with 13Z-olefins in a crystal-violet assay in comparison to epothilone D.
(§2) b) IC50 values [nM] for the growth inhibition of human MCF-7 breast- and multidrug-resistant NCl/ADR carcinoma cell lines of the epothilone derivatives with 13,14-α-epoxide in a crystal-violet assay in comparison to epothilone B.

For assay [2], the system named is human MCF-7 breast carcinoma cell line. The experiment in a line: growth inhibition of MCF-7 cells, crystal-violet assay. The format is cell-based. To be noted: for IC50: crystal-violet assay; for active strength in comparison to reference compound epothilone B: statement on Table 2; for active strength in comparison to reference compound epothilone D: statement on Table 1.
Excerpt: as §1, §2

Setting [3] is: Table 2, 13,14-α-epoxides, in comparison to epothilone B.
Where [4] appears, read: Table 1, 13Z-olefins, in comparison to epothilone D.

Bounds are passed on as bounds.

What is called IC50 is the concentration that gives 50% inhibition. As for `Cc1nc(/C=C(\F)[C@@H]2C[C@@H]3O[C@]3(C)CCC[C@H](C)[C@H](O)[C@@H](C)C(=O)C(C)(C)[C@@H](O)CC(=O)O2)cs1` [Example 3B, (1S,3S(Z),7S,10R,11S,12S,16R)-7,11-dihydroxy-3-(1-fluoro-2-(2-methyl-4-thiazolyl)ethenyl)-8,8,10,12,16-pentamethyl-4,17-dioxabicyclo[14.1.0]heptadecane-5,9-dione], the IC50 in assay [1] (setting [3]) was found to be 1.4 nM; in assay [2] (setting [3]), 0.3 nM. Besides, in assay [1] (Table 2), the “Selectivity = IC50 (NCl/ADR) : IC50 (MCF-7)” value (shortened to “Selectivity = IC50 (NCl/ADR) ”) amounted to 4.7. The “selectivity in multi-drug-resistant cell line NCl/ADR in comparison to epothilone B” value in assay [1] is “improved selectivity”. For the same compound, the “active strength in comparison to reference compound epothilone B” value in assay [2] is “comparable or significantly higher active strength”.

Turning to `CC[C@H]1C(=O)C2(CCC2)[C@@H](O)CC(=O)O[C@H](/C(F)=C/c2csc(C)n2)C[C@@H]2O[C@]2(C)CCC[C@H](C)[C@@H]1O` [Example 14A, (1S,3S(Z),7S,10R,11S,12S,16R)-7,11-Dihydroxy-12,16-dimethyl-10-ethyl-3-(1-fluoro-2-(2-methyl-4-thiazolyl)ethenyl) 8,8-(1,3-trimethylene)-4,17-dioxabicyclo[14.1.0]hepta-decane-5,9-dione], the IC50 in assay [1] (setting [3]) came out at 3.5 nM; in assay [2] (setting [3]) it was 0.5 nM. Besides, the “Selectivity = IC50 (NCl/ADR) ” value in assay [1] (Table 2) came out at 7.0. In addition, the “active strength in comparison to reference compound epothilone B” value in assay [2] is “comparable or significantly higher active strength”.

With `CC[C@H]1C(=O)C(C)(C)[C@@H](O)CC(=O)O[C@H](/C(F)=C/c2ccccn2)C/C=C(/C)CCC[C@H](C)[C@@H]1O` [Example 17, (4S,7R,8S,9S,13Z,16S(Z))-4,8-Dihydroxy-16-(1-fluoro-2-(2-pyridyl)ethenyl)-7-ethyl-1-oxa-5,5,9,13-tetramethyl-cyclohexadec-13-ene-2,6-dione], the IC50 in assay [1] (setting [4]) stood at 33 nM; in assay [2] (setting [4]), 6.1 nM. Besides, in assay [1] (Table 1), the “Selectivity = IC50 (NCl/ADR) ” value is on record as 5.4. For the same compound, the “active strength in comparison to reference compound epothilone D” value in assay [2] is reported as “significantly higher active strength”.

Turning to `C/C(=C\c1csc(C)n1)[C@@H]1C[C@@H]2O[C@]2(C)CCC[C@H](C)[C@H](O)[C@@H](C)C(=O)C(C)(C)[C@@H](O)CC(=O)O1` [Epothilone B, reference compound], the IC50 in assay [1] (setting [3]) amounted to 3.5 nM; in assay [2] (setting [3]) it was 0.6 nM. The “Selectivity = IC50 (NCl/ADR) ” value in assay [1] (Table 2) is 5.8.

On to `C/C1=C/C[C@@H](/C(F)=C/c2csc(C)n2)OC(=O)C[C@H](O)C(C)(C)C(=O)[C@H](C)[C@@H](O)[C@@H](C)CCC1` [Example 1, (4S,7R,8S,9S,13(Z),16S(Z))-4,8-Dihydroxy-16-(1-fluoro-2-(2-methyl-4-thiazolyl)ethenyl)-1-oxa-5,5,7,9,13-pentamethyl-cyclohexadec-13-ene-2,6-dione], for which the IC50 in assay [1] (setting [4]) turned out to be 12 nM; in assay [2] (setting [4]) it was 4.3 nM. In assay [1] (Table 1), the “Selectivity = IC50 (NCl/ADR) ” value is 2.8. In assay [2], the “active strength in comparison to reference compound epothilone D” value is listed as “significantly higher active strength”.

For `CC[C@H]1C(=O)C(C)(C)[C@@H](O)CC(=O)O[C@H](/C(F)=C/c2ccccn2)C[C@@H]2O[C@]2(C)CCC[C@H](C)[C@@H]1O` [Example 20A, (1S,3S(Z),7S,10R,11S,12S,16R)-7,11-Dihydroxy-10-ethyl-3-(1-fluoro-2-(2-pyridyl)ethenyl)-8,8,12,16-tetramethyl-4,17-dioxabicyclo[14.1.0]heptadecane-5,9-dione], the IC50 amounted to 4.6 nM in assay [1] (setting [3]) and 0.6 nM in assay [2] (setting [3]). For the same compound, in assay [1] (Table 2), the “Selectivity = IC50 (NCl/ADR) ” value was determined as 7.6. Besides, the “active strength in comparison to reference compound epothilone B” value in assay [2] was “comparable or significantly higher active strength”.

Regarding `Cc1nc(C=C(F)C2CC3OC3(C)CCCC(C)C(O)C(C)C(=O)C3(CCC3)C(O)CC(=O)O2)cs1` [Example 10A, (1S,3S(Z),7S,10R,11S,12S,16R)-7,11-Dihydroxy-3-((1-fluoro)-2-(2-methyl-4-thiazolyl)ethenyl)-10,12,16-trimethyl-8,8-(1,3-trimethylene)-4,17-dioxabicyclo[14.1.0]hepta-deca-5,9-dione], the IC50 in assay [1] (setting [3]) is 3.9 nM; in assay [2] (setting [3]), 2.1 nM. The “Selectivity = IC50 (NCl/ADR) ” value in assay [1] (Table 2) was determined as 1.9. Moreover, the “selectivity in multi-drug-resistant cell line NCl/ADR in comparison to epothilone B” value in assay [1] was “improved selectivity”.

On to `C/C1=C/C[C@@H](/C(C)=C/c2csc(C)n2)OC(=O)C[C@H](O)C(C)(C)C(=O)[C@H](C)[C@@H](O)[C@@H](C)CCC1` [Epothilone D], for which the IC50 in assay [1] (setting [4]) is 50 nM; in assay [2] (setting [4]), 23 nM. The “Selectivity = IC50 (NCl/ADR) ” value in assay [1] (Table 1) worked out at 2.2.

As to `CC(=O)O[C@H]1C(=O)[C@@]2(C)[C@H]([C@H](OC(=O)c3ccccc3)[C@]3(O)C[C@H](OC(=O)[C@H](O)[C@@H](NC(=O)c4ccccc4)c4ccccc4)C(C)=C1C3(C)C)[C@]1(OC(C)=O)CO[C@@H]1C[C@@H]2O` [Taxol, reference compound], the IC50 is greater than 100 nM in assay [1] (Homo sapiens, Table 1, 13Z-olefins, in comparison to epothilone D); greater than 100 nM in assay [1] (setting [3]); 4 nM in assay [2] (Homo sapiens, MCF7, Table 1, 13Z-olefins, in comparison to epothilone D). Besides, the “Selectivity = IC50 (NCl/ADR) ” value in assay [1] (Table 1) and in assay [1] (Table 2) was >>25 each time.

In the case of “(4S,7R,8S,9S,13(Z),16S(Z)-4,8-Dihydroxy-9,13-diethyl-7-ethyl-16-(1-fluoro-2-(2-methyl-4-thiazolyl)ethenyl)-1-oxa-5,5-(1,3-trimethylene)cyclohexadec-13-ene-2,6-dione [Example 13]”, the figures for the IC50 in assay [1] (setting [4]) and in assay [2] (setting [4]) were 28 nM and 5.8 nM, respectively. Besides, the “Selectivity = IC50 (NCl/ADR) ” value in assay [1] (Table 1) is 4.8. The “active strength in comparison to reference compound epothilone D” value in assay [2] is listed as “significantly higher active strength”.

On to `C/C1=C/C[C@@H](/C(F)=C/c2csc(C)n2)OC(=O)C[C@H](O)C2(CCC2)C(=O)[C@H](C)[C@@H](O)[C@@H](C)CCC1` [Example 9], for which the IC50 in assay [1] (setting [4]) is 10 nM; in assay [2] (setting [4]), 5 nM. For the same compound, the “Selectivity = IC50 (NCl/ADR) ” value in assay [1] (Table 1) was found to be 2.0. Besides, the “active strength in comparison to reference compound epothilone D” value in assay [2] was “significantly higher active strength”.

In the case of `Cc1nc(/C=C(\Cl)[C@@H]2C[C@@H]3O[C@]3(C)CCC[C@H](C)[C@H](O)[C@@H](C)C(=O)C(C)(C)[C@@H](O)CC(=O)O2)cs1` [Example 7A, (1S,3S(Z),7S,10R,11S,12S,16R)-7,11-Dihydroxy-3-(1-chloro-2-(2-methyl-4-thiazolyl)ethenyl)-8,8,10,12,16-pentamethyl-4,17-dioxabicyclo[14.1.0]heptadecane-5,9-dione], the values for the IC50 in assay [1] (setting [3]) and in assay [2] (setting [3]) were 6 nM and 0.8 nM, respectively. Besides, the “Selectivity = IC50 (NCl/ADR) ” value in assay [1] (Table 2) is on record as 7.5.

Regarding `C/C1=C/C[C@@H](/C(Cl)=C/c2csc(C)n2)OC(=O)C[C@H](O)C(C)(C)C(=O)[C@H](C)[C@@H](O)[C@@H](C)CCC1` [Example 5, (4S,7R,8S,9S,13(Z),16S(Z))-4,8-Dihydroxy-16-(1-chloro-2-(2-methyl-4-thiazolyl)ethenyl)-1-oxa-5,5,7,9,13-pentamethyl-cyclohexadec-13-ene-2,6-dione], the IC50 in assay [1] (setting [4]) was 37 nM; in assay [2] (setting [4]) it was 5.1 nM. Further, the “Selectivity = IC50 (NCl/ADR) ” value in assay [1] (Table 1) turned out to be 7.3.
